{
  "source": "ChEMBL document CHEMBL3232823",
  "about": "“Non-imidazole histamine H3 receptor ligands incorporating antiepileptic moieties” (Eur J Med Chem, 2014)",
  "key": {"Histamine H1 receptor": {"molecular_target": "Histamine H1 receptor (Homo sapiens, UniProt P35367)", "sequence (P35367 whole entry)": "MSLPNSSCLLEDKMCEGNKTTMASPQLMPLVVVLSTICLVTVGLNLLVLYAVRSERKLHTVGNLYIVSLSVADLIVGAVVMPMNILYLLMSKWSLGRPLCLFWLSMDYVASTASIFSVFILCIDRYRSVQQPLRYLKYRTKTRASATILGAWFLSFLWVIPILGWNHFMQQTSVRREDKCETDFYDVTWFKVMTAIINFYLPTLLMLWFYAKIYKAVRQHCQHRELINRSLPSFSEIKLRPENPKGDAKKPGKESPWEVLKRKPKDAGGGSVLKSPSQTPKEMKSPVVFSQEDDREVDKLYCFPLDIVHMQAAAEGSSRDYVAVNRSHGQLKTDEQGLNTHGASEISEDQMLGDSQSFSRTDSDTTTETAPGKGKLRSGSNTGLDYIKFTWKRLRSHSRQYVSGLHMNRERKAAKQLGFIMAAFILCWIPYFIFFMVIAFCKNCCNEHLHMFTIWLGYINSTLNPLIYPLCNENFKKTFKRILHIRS", "experiment": "Displacement of [3H]pyrilamine from human H1 receptor expressed in CHO cell membrane after 120 mins by liquid scintillation counting analysis", "type": "cell membranes"}, "Rattus norvegicus [1]": {"tested_on": "Rattus norvegicus", "experiment": "Anticonvulsant activity in Wistar rat assessed as protection against maximal electroshock-induced convulsions at 1 to 10 mg/kg, ip administered 30 mins before MES challenge", "type": "functional, organism-based"}, "Histamine H3 receptor": {"molecular_target": "Histamine H3 receptor (Homo sapiens, UniProt Q9Y5N1)", "sequence (Q9Y5N1 whole entry)": "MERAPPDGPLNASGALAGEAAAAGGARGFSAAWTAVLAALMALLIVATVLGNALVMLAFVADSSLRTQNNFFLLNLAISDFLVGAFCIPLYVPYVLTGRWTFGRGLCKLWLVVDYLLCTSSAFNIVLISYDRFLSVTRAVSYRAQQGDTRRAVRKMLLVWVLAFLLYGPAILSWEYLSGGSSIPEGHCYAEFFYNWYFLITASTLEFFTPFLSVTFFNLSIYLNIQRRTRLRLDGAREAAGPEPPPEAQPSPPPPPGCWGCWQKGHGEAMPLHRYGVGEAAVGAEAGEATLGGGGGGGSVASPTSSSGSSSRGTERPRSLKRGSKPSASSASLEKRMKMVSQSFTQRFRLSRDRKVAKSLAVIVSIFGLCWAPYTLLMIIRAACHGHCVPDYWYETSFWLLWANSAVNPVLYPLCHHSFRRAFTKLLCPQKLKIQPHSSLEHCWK", "experiment": "Displacement of [3H]N-alpha-methylhistamine from human H3 receptor expressed in HEK-293 cell membrane after 90 mins by liquid scintillation counting analysis", "type": "cell membranes, HEK293"}, "Histamine H4 receptor": {"molecular_target": "Histamine H4 receptor (Homo sapiens, UniProt Q9H3N8)", "sequence (Q9H3N8 whole entry)": "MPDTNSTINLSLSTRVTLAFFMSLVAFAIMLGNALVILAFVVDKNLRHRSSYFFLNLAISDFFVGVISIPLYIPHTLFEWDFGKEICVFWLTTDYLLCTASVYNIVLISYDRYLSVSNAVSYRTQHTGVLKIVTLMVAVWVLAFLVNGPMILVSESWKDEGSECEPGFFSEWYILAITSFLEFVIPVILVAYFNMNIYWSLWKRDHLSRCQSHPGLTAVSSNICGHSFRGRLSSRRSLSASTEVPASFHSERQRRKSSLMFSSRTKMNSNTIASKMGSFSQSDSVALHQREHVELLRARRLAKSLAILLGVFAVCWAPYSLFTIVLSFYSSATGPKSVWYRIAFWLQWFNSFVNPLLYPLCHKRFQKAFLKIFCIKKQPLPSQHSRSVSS", "experiment": "Displacement of [3H]histamine from human H4 receptor expressed in Sf9 cell membrane co-transfected with Galphai2 and Gbeta1gamma2 after 60 mins by liquid scintillation counting analysis"}, "Rattus norvegicus [2]": {"tested_on": "Rattus norvegicus", "experiment": "Anticonvulsant activity in Wistar rat assessed as protection against maximal electroshock-induced convulsions at 10 mg/kg, ip administered 30 mins before MES challenge", "type": "functional, organism-based", "set-up": "dose 10 mg/kg"}, "Rattus norvegicus [3]": {"tested_on": "Rattus norvegicus", "experiment": "Anticonvulsant activity in Wistar rat assessed as protection against maximal electroshock-induced convulsions at 1 mg/kg, ip administered 30 mins before MES challenge", "type": "functional, organism-based", "set-up": "dose 1 mg/kg"}, "Rattus norvegicus [4]": {"tested_on": "Rattus norvegicus", "experiment": "Anticonvulsant activity against PTZ-kindled convulsion Wistar rat model assessed as prolongation of latency time to myoclonic convulsions at 10 mg/kg, ip administered 30 mins before PTZ challenge", "type": "functional, organism-based", "set-up": "dose 10 mg/kg"}, "Rattus norvegicus [5]": {"tested_on": "Rattus norvegicus", "experiment": "Anticonvulsant activity against PTZ-kindled convulsion Wistar rat model assessed as reduction in convulsions at 1 mg/kg, ip administered 30 mins before PTZ challenge measured for 10 to 30 mins", "type": "functional, organism-based", "set-up": "dose 1 mg/kg"}, "Rattus norvegicus [6]": {"tested_on": "Rattus norvegicus", "experiment": "Anticonvulsant activity against PTZ-kindled convulsion Wistar rat model assessed as decrease in total convulsion time at 10 mg/kg, ip administered 30 mins before PTZ challenge", "type": "functional, organism-based", "set-up": "dose 10 mg/kg"}, "Rattus norvegicus [7]": {"tested_on": "Rattus norvegicus", "experiment": "Anticonvulsant activity against PTZ-kindled convulsion Wistar rat model assessed as reduction in convulsions at 10 mg/kg, ip administered 30 mins before PTZ challenge measured for 10 to 30 mins", "type": "functional, organism-based", "set-up": "dose 10 mg/kg"}, "Rattus norvegicus [8]": {"tested_on": "Rattus norvegicus", "experiment": "Anticonvulsant activity against PTZ-kindled convulsion Wistar rat model assessed as increase in latency time to clonic-tonic convulsions at 10 mg/kg, ip administered 30 mins before PTZ challenge", "type": "functional, organism-based", "set-up": "dose 10 mg/kg"}, "Rattus norvegicus [9]": {"tested_on": "Rattus norvegicus", "experiment": "Anticonvulsant activity against PTZ-kindled convulsion Wistar rat model assessed as latency for the first atypical behaviours at 10 mg/kg, ip administered 30 mins before PTZ challenge", "type": "functional, organism-based", "set-up": "dose 10 mg/kg"}, "Rattus norvegicus [10]": {"tested_on": "Rattus norvegicus", "experiment": "Anticonvulsant activity against PTZ-kindled convulsion Wistar rat model assessed as reduction in convulsions at 1 to 10 mg/kg, ip administered 30 mins before PTZ challenge measured for 10 to 30 mins", "type": "functional, organism-based"}, "Rattus norvegicus [11]": {"tested_on": "Rattus norvegicus", "experiment": "Proconvulsant activity in maximal electroshock-induced convulsions Wistar rat model assessed as tonic hindlimb extensions at 1 to 10 mg/kg, ip administered 30 mins before MES challenge", "type": "ADME, organism-based", "set-up": "dose 1-10 mg/kg, route intraperitoneal", "details": "in vivo, 0.5 h"}},
  "note": "The source made the active and inactive calls. The rule behind the calls is not given here.",
  "data": [
    {"smiles": "Cc1nnc(C)n1-c1ccc(OCCCN2CCCCC2)cc1", "values": [
      {"measurement": "Ki", "setting": "Histamine H1 receptor", "value": 29.5, "unit": "µM"},
      {"measurement": "Activity", "setting": "Rattus norvegicus [1]", "value": "inactive"},
      {"measurement": "Ki", "setting": "Histamine H3 receptor", "value": 0.933, "unit": "nM"},
      {"measurement": "Ki", "setting": "Histamine H4 receptor", "value": 20.4, "unit": "µM"}
    ]},
    {"smiles": "C[C@H](NCc1ccc(OCCCN2CCCCC2)cc1)C(N)=O", "values": [
      {"measurement": "Ki", "setting": "Histamine H1 receptor", "value": 31.6, "unit": "µM"},
      {"measurement": "Activity", "setting": "Rattus norvegicus [1]", "value": "inactive"},
      {"measurement": "Ki", "setting": "Histamine H3 receptor", "value": 42.7, "unit": "nM"},
      {"measurement": "Ki", "setting": "Histamine H4 receptor", "value": 331, "unit": "µM"}
    ]},
    {"smiles": "Cc1nnc(-c2cccnc2)n1-c1ccc(OCCCN2CCCCC2)cc1", "values": [
      {"measurement": "Ki", "setting": "Histamine H1 receptor", "value": 10.5, "unit": "µM"},
      {"measurement": "Activity", "setting": "Rattus norvegicus [1]", "value": "inactive"},
      {"measurement": "Ki", "setting": "Histamine H3 receptor", "value": 0.24, "unit": "nM"},
      {"measurement": "Ki", "setting": "Histamine H4 receptor", "value": 1410, "unit": "µM"}
    ]},
    {"smiles": "S=C(NC1CCCCC1)N1CCC(c2cnc[nH]2)CC1", "note": "[THIOPERAMIDE]", "values": [
      {"measurement": "Ki", "setting": "Histamine H1 receptor", "value": "> 10", "unit": "µM"}
    ]},
    {"smiles": "O=C1NC(=O)C(c2ccccc2)(c2ccccc2)N1", "values": [
      {"measurement": "Activity", "setting": "Rattus norvegicus [2]", "value": "Active"}
    ]},
    {"smiles": "O=C1NC(c2ccccc2)(c2ccccc2)C(=O)N1CCCN1CCCCC1", "values": [
      {"measurement": "Activity", "setting": "Rattus norvegicus [3]", "value": "Active"},
      {"measurement": "Activity", "setting": "Rattus norvegicus [4]", "value": "Active"},
      {"measurement": "Ki", "setting": "Histamine H1 receptor", "value": 6.17, "unit": "µM"},
      {"measurement": "inhibition", "setting": "Rattus norvegicus [5]", "value": "inactive"},
      {"measurement": "Activity", "setting": "Rattus norvegicus [6]", "value": "Active"},
      {"measurement": "Ki", "setting": "Histamine H3 receptor", "value": 562, "unit": "nM"},
      {"measurement": "Ki", "setting": "Histamine H4 receptor", "value": 490, "unit": "µM"},
      {"measurement": "inhibition", "setting": "Rattus norvegicus [7]", "value": "Active"},
      {"measurement": "Activity", "setting": "Rattus norvegicus [8]", "value": "Active"},
      {"measurement": "Activity", "setting": "Rattus norvegicus [9]", "value": "inactive"}
    ]},
    {"smiles": "Clc1ccc(CCCOCCCN2CCCCC2)cc1", "note": "[PITOLISANT]", "values": [
      {"measurement": "Ki", "setting": "Histamine H4 receptor", "value": "> 10", "unit": "µM"},
      {"measurement": "Activity", "setting": "Rattus norvegicus [2]", "value": "Active"}
    ]},
    {"smiles": "O=C1NC(c2ccccc2)(c2ccccc2)C(=O)N1Cc1ccc(OCCCN2CCCCC2)cc1", "values": [
      {"measurement": "inhibition", "setting": "Rattus norvegicus [10]", "value": "inactive"},
      {"measurement": "Ki", "setting": "Histamine H1 receptor", "value": 2.24, "unit": "µM"},
      {"measurement": "Activity", "setting": "Rattus norvegicus [1]", "value": "inactive"},
      {"measurement": "Ki", "setting": "Histamine H3 receptor", "value": 75.9, "unit": "nM"},
      {"measurement": "Ki", "setting": "Histamine H4 receptor", "value": 9.33, "unit": "µM"},
      {"measurement": "Activity", "setting": "Rattus norvegicus [11]", "value": "Toxic"}
    ]}
  ]
}
